Experimental data from patent publication US20160355456A1, “PLANT EXTRACTS AND USE THEREOF” (TAKASAGO INTERNATIONAL CORPORATION, priority 2007, published 2016).

Columns and labels:
Assay type in all cases: biochemical
[1] = Deodorizing activity test (1) with tyrosinase as polyphenol oxidase; conditions: Tyrosinase 1 mg, sample 2 mg, sodium methyl mercaptan 15% aqueous solution 2 μl, room temperature 10 minutes, head space gas detection tube
Description: (§1) Tyrosinase (mfd. by SIGMA, 1 mg) or laccase (mfd. by Amano Enzyme, 1 mg) was added as a polyphenol oxidase to each (2 mg) of 5-CQA (mfd. by Tokyo Chemical Industry), ferulic acid (mfd. by Tokyo Chemical Industry) and ferulylquinic acid and dissolved therein, and then sodium methyl mercaptan (mfd. by Tokyo Chemical Industry, 15% aqueous solution) (2 μl) was added thereto as a malodor substance and sealed therein, followed by stirring at room temperature for 10 minutes. The amount of methyl mercaptan in the head space part was measured using a gas detection tube (GASTEC Corporation, #71H) and the deodorizing ratio was calculated in accordance with the following mathematical expression.
(§2) In this connection, a system to which each of CQA or FQA (2 mg) and polyphenol oxidase were not added was used as a control plot.
(§3) Deodorizing ratio (%)=100−(methyl mercaptan concentration of sample plot/methyl mercaptan concentration of control plot)×100

[2] = Deodorizing activity test (1) with laccase as polyphenol oxidase; conditions: Laccase 1 mg, sample 2 mg, sodium methyl mercaptan 15% aqueous solution 2 μl, room temperature 10 minutes, head space gas detection tube
Description: as §1, §2, §3

[3] = Anti-oxidation activity test (DPPH radical elimination ability); conditions: Trolox equivalent amount; sample 100 mg/l in 50% v/v ethanol, 1 mM DPPH, 30 minutes, absorbance 520 nm
Description: As the anti-oxidation activity, to what extent it can eliminate DPPH (1,1-diphenyl-2-picrylhydrazyl) (mfd. by Tokyo Chemical Industry) radicals was evaluated by an absorptiometric method (520 nm). Its illustrative method is as the following anti-oxidation activity measuring method.
Used as the standard of radical elimination ability was Trolox (218940050: mfd. by ACROS ORGANICS) prepared from α-tocopherol which is a typical antioxidant substance by releasing its side chain to provide water-soluble nature. By preparing a calibration curve of Trolox concentration and absorbance (y=−0.2099x+0.4179), anti-oxidation activity of each sample was evaluated by converting it into Trolox equivalent amount. Regarding samples in the table, 5-CQA is manufactured by Tokyo Chemical Industry and ferulic acid is manufactured by Tokyo Chemical Industry.
1 mM ethanol solution of DPPH is prepared (39.4 mg/100 ml). After dissolution, DPPH is immediately used in the test (preparation when used).
By dissolving each sample in 50% v/v ethanol, its 100 mg/l solution is prepared.
A 4 ml portion of the above-mentioned sample solution and 1 ml of the DPPH solution are added to a test tube, followed by stirring and allowing to stand still for 30 minutes, and then absorbance at a wavelength of 520 nm is measured.
By applying absorbance of the sample to the calibration curve, Trolox equivalent amount (mol) is calculated.

Row | Compound | Deodorizing ratio (%) [1] [%] | Deodorizing ratio (%) [2] [%] | Anti-oxidation activity (T. μmol/μmol) [3] [T. μmol/μmol]
1 | O=C(/C=C/c1ccc(O)c(O)c1)O[C@@H]1C[C@@](O)(C(=O)O)C[C@@H](O)[C@@H]1O [Example 5-CQA, 5-caffeoylquinic acid] | 75 | 100 | 1.03
2 | COc1cc(/C=C/C(=O)O)ccc1O [Ferulic acid, ferulic acid] | −10 | −18 | 0.37
3 | ferulylquinic acid | −20 | −18 | 0.35
